Assay results taken from US9885727B2, “Cell culture models for validating candidate compounds for use in treating COPD and other diseases” (THE TRUSTEES OF COLUMBIA UNIVERSITY IN THE CITY OF NEW YORK, priority 2010, dated 2018).
One block for each molecule: values may come before it.

Legend:
[1] = Stability of DES and IDS on acid hydrolysis (6N HCl, 110° C., 24 hrs), LC/MSMS; details: for Recovered, mean: 6N HCl at 110° C. for 24 hour; for stability through acid hydrolysis: 10, 5 and 1 ng/ml, HCl hydrolysis at 110° C. for 24 hrs
Procedure: The assay of total DES and IDS in biological fluids requires HCl hydrolysis at 110° C. to release DES and IDS from their crosslinked or peptide conjugates. We examined the stability of DES and IDS in three different concentrations (10, 5, and 1 ng/ml) during HCl hydrolysis at 110° C. for 24 hrs. The DES/IDS solutions resulting from the HCl treatment were subjected to LC/MSMS measurements of DES and IDS, which were compared with the measurements of the same concentrations of untreated DES and IDS to calculate the recovery by the acid treatment.

COPD patients [2] = assay: Tiotropium treatment of COPD patients: D/I in plasma, urine and sputum by LC/MS; type: in vivo, human
Procedure: COPD patients have elevated levels of D/I in plasma, urine and sputum, which might respond to prolonged bronchodilation. To determine if clinical effects of Tiotropium (TIO) affect tissue degradation of the lung in COPD, clinically stable patients with COPD (n=9) not on TIO prior to the study and at one month and a second month after initiating therapy were tested. Other anticholinergic bronchodilators were stopped prior to TIO, and other therapies/disease treatments were unchanged for the two months of study. To these patients, 18 mcg TIO was administered each 24 hours. D/I in plasma, urine and sputum were measured by liquid chromatography and mass spectrometry (LC/MS) prior to the study and at one month and two months after the study.

COPD patients [3] = assay: Spirometry in post-TIO therapy patients; type: in vivo, human; details: most post-TIO therapy patients
Excerpt: The improvement in spirometric indices were usually concordant with levels of D/I in patients.

[4] = tested on: neutrophils and macrophages; details: cited from earlier work
pro-MMP1 and pro-MMP3 = details: cited from earlier work
[5] = tested on: smoke-induced elastic fiber injury; assay: Mouse model of smoke-induced pulmonary emphysema: DID in BALF and whole lungs; type: in vivo, DBA/2J mice
Procedure: (§1) Eight-week-old female DBA/2J mice (The Jackson Laboratory, Bar Harbor, Me.) were divided into two treatment groups as follows: Group 1 was treated with aerosolized HA, beginning 1 month following initiation of smoke exposure; Group 2 was treated with aerosolized water, beginning 1 month following initiation of smoke exposure. Groups 1 and 2 were exposed to smoke for 3 h per day, 5 days/week, for a period of 10 months. Group 1 was treated with a 0.1% solution of HA in water for 1 h prior to each smoking session. Group 2 received aerosolized water for a similar interval. At various intervals following initial smoke exposure, animals were euthanized to determine (1) DID content in bronchoalveolar lavage fluid (BALF) and whole lungs at 2, 4, 6, 8, and 10 months; (2) lung histopathology at 3, 6, and 10 months; and (3) airspace enlargement as measured by the mean linear intercept (MLI) at 3 months.
Following administration of either aerosolized HA or water, the nebulizer was disconnected and the smoking machine (Model TE-10, Teague Enterprises, Davis, Calif.) was attached to the exposure chamber. Both treatment groups were exposed to cigarette smoke for a period of 3 h/day, 5 days/week. The smoking machine simultaneously burned two filtered research-grade cigarettes (type 2R4F, University of Kentucky). Each cigarette was puffed once per minute for 2 s at a flow rate of 1.05 LPM, yielding 35 cc of smoke. This cycle was repeated nine times before ejecting the cigarette and loading a new one. Proper flow rate was maintained by a vacuum pump that established negative pressure at the exhaust port.
Beginning 1 month following initial smoke exposure, Group 1 was administered a 0.1% solution of low-molecular-weight (150 kDa) streptococcal HA in water (Bayer, Shawnee, Kans.), using a Misty-Ox nebulizer (Vital Signs, Totowa, N.J.). Group 2 received aerosolized water alone. The nebulizer was connected to a heavy-duty air compressor that delivered a constant pressure of 30 psi. The aerosol entered the exposure chamber through an inflow port attached to the roof and was drawn through the chamber by negative pressure created by a vacuum pump connected to an exhaust port on the side wall. The chamber was large enough (28×19×15 in.) to permit the mice to remain in their cages while inhaling the aerosol, thereby minimizing direct handling of the animals.
The levels of the elastin-specific crosslinking amino acids, DID, were measured in both BALF and whole-lung tissues. Animals were asphyxiated with CO2 and their lungs were lavaged three times with 1-ml aliquots of Hanks' solution. Both cell-free lavage fluids and homogenized lung tissues were then hydrolyzed in 6 N HCl at 110° C. for 24 h, and the hydrolysates were filtered and evaporated to remove acid. DID were quantified by high-performance liquid chromatography and electrospray ionization mass spectrometry according to previously published procedures^11.

[6] = tested on: smoke-induced airspace enlargement; type: in vivo, DBA/2J mice
Procedure: as §1, with “3 months. […]” for “3 months.”
At 3, 6, and 10 months following initiation of smoke exposure, mice were asphyxiated with CO2 and their lungs were inflated in situ with 10% neutral-buffered formalin at a constant pressure of 20 cm H2O. […] Slide sections stained with hematoxylin and eosin were examined with the light microscope to determine histological changes and to quantify airspace diameter by the mean linear intercept method^16. […]

[7] = tested on: elastase-induced airspace enlargement; details: aerosol of 0.1% HA in water for 50 min prior to elastase; cited from earlier work
[8] = tested on: elastases, including human metalloproteinase 12; details: cited from earlier work
[9] = tested on: smoke-induced elastic fiber injury; details: concurrent administration, within 3 months of smoke exposure; cited from earlier work
[10] = COPD patients, 18 mcg TIO each 24 hours, up to two months

Recovered, mean ([1]; 1 ng/ml DES/IDS): 0.50 ng/mL
Recovered, mean ([1]; 5 ng/ml DES/IDS): 2.42 ng/mL
Recovered, mean ([1]; 10 ng/ml DES/IDS): 5.04 ng/mL
stability through acid hydrolysis [1]: stable through acid hydrolysis
Molecule: NC(CCCC[n+]1cc(CCC(N)C(=O)O)c(CCCC(N)C(=O)O)c(CCC(N)C(=O)O)c1)C(=O)O (stereo not drawn) [DES, Desmosine]

Molecule: NC(CCCC[n+]1cc(CCC(N)C(=O)O)cc(CCC(N)C(=O)O)c1CCCC(N)C(=O)O)C(=O)O (stereo not drawn) [IDS, Isodesmosine]
Recovered, mean ([1]; 1 ng/ml DES/IDS): 0.48 ng/mL
Recovered, mean ([1]; 5 ng/ml DES/IDS): 2.55 ng/mL
Recovered, mean ([1]; 10 ng/ml DES/IDS): 5.37 ng/mL
stability through acid hydrolysis [1]: stable through acid hydrolysis

Molecule: C[N+]1(C)[C@@H]2C[C@@H](OC(=O)C(O)(c3cccs3)c3cccs3)C[C@H]1[C@@H]1O[C@@H]12 [TIO, Tiotropium]
patients with significant decrease in D/I levels in plasma (COPD patients [2]; [10]): 10 out of 12
patients with significant decrease in D/I levels in sputum (COPD patients [2]; [10]): all 12 patients
patients with significant decrease in D/I levels in urine (COPD patients [2]; [10]): 10 out of 12
D/I levels in plasma, urine and sputum (COPD patients [2]; two months of treatment with TIO): significant reductions
FVC, FEV1 and ratio of FEV1/FVC (COPD patients [3]): significant increase
Residual Volume (RV) (COPD patients [3]): decreases

Molecule: VGVAPG (Human) [elastin-derived hexapeptide isolated from ligamentum nuchae or aorta by porcine pancreatic elastase]
chemoattractant activity [4]: chemoattractants for neutrophils and macrophages
pro-MMP1 and pro-MMP3 upregulation (pro-MMP1 and pro-MMP3): induce pro-MMP1 and pro-MMP3 upregulation

inflammatory response beyond that induced by smoke exposure ([6]; mouse, in vivo): no evidence of an inflammatory response
Molecule: hyaluronan [HA]
difference in BALF DID, HA/Smoke vs Smoke-Only ([5]; 2 and 4 months of smoke exposure): not statistically significant
BALF DID, level before the drop ([5]; HA/Smoke group, 0.1% aerosolized HA begun 1 month after start of smoke): 0.8 ng/mL
BALF DID, level after the drop ([5]; HA/Smoke group, after 4 months of smoke exposure): less than 1 pg/ml
BALF DID, HA-treated vs Smoke-Only ([5]; subsequent measurements (after 4 months)): significantly lower levels
difference in lung DID, HA/Smoke vs Smoke-Only ([5]; whole lungs, 10-month period): not statistically significant
mean linear intercept (MLI) ([6]; 3 months of smoke, HA treated for 2 months, smoke alone 58.4 μm, p<0.01): 42.6 μm
airspace enlargement vs aerosolized water and elastase [7]: significantly less airspace enlargement
direct inhibition of elastases [8]: does not directly inhibit elastases
elastolysis of elastic fibers with bound HA ([8]; in vitro, several types of elastase including human metalloproteinase 12): prevented elastolysis
BALF DID levels [9]: significantly reduced
